# Laboratory results: patent US20060021470A1, “Compositions for enhancing biological functions in organisms” (priority 2004, published 2006)
# Tested on: ech42 (42-kDa endochitinase-encoding) gene expression
# Assay: ech42 endochitinase promoter:gfp induction in T. atroviride strain P1
# Assay type: cell-based
# Conditions: endochitinase promoter:gfp fluorescence in Trichoderma strain P1
# Text: To monitor chitinase expression during mycoparasitism of Trichoderma atroviride (formerly T. harzianum) strain P1 in situ, the strain was transformed with plasmids containing fusions of green fluorescent protein (“gfp”) to the 5-regulatory sequences of the T. atroviride nag1 gene (N-acetyl-beta-D-glucosaminidase-encoding) or ech42 (42-kDa endochitinase-encoding) genes. Confronting these strains with the target Rhizoctonia solani led to induction of gene expression before (ech42) or after (nag 1) physical contact. […] The chitinase inhibitor allosamidin blocked ech42 expression and reduced inhibition of R. solani growth during confrontation. […] T. atroviride, T. harzianum, and any other species of Trichoderma produce small quantities of particular enzymes constitutively. […]
# The ability of Trichoderma to release elicitor compounds from the various target fungi was measured by induction of gfp in the endochitinase promoter labeled P1 strain of Trichoderma. […]
# In subsequent experiments, the release of elicitors from cell walls of some of the same fungi and Oomycetes tested above using enzymes (endochitinase, glucanase, exochitinase, mixed cellulase) purified from T. atroviride was assessed. Again, the elicitation abilities of the materials were assessed with Trichoderma strain P1 transformed to contain the endochitinase promoter:gfp construct. […]
substance,measurement,value
Chitobiose,elicitor activity,least effective
